Results: US20250327028A1, “ENGINEERED PLATELETS AS TARGETED PROTEIN DEGRADERS” (Wisconsin Alumni Research Foundation, priority 2024, published 2025)

How the values were obtained:
[1] = system: HSP90α (Hsp90aa1) and HSP90β (Hsp90ab1); assay: Streptavidin-mediated immunoprecipitation and mass spectrum analysis of biotin-labeled protein in 4T1 lysate; format: cell-based, murine; details: 4T1 cell lysate
Experimental: Streptavidin-mediated immunoprecipitation and mass spectrum analysis: 2×10^6 4T1 cells were seeded in T75 culture flasks and cultured for 24 h. Then, the medium in the corresponding flasks was replaced with 15 mL of blank medium with DMSO or HAC-B (10 μM). Following incubation for another 2 h, the cells were washed with cold PBS twice and digested with 2 mL trypsin. The cell pellets were collected through centrifugation at 1,200 rpm for 3 min and washed with cold PBS. The final pellets were directly lysed on ice with IP lysis buffer (50 mM Tris-HCl, pH 7.4; 150 mM NaCl; 2 mM EDTA; 1% NP-40) containing PMSF (1 mM) and the phosphatase inhibitor cocktail for 30 min. The lysates were collected and centrifuged at 10,000 g for 10 minutes at 4° C. The total proteins in the supernatants were quantified through the BCA assay, and 20 μL of lysate supernatants were saved as the input samples. To totally pull down the biotin-labeled contents, 150 μL of Pierce™ streptavidin magnetic beads was added to each supernatant, and the resulting mixtures were incubated at 4° C. with a gentle rotation overnight. Subsequently, the supernatant was discarded by placing the tubes on a magnetic rack, and the obtained magnetic beads were washed with IP lysis buffer three times. […] Finally, the bands were treated with ECL western blot substrate and detected by the iBright™ imaging system. […]

WT MDA-MB-231 cells = assay: Colocalization between internalized NeutrAvidin and lysosome marker LAMP1; format: cell-based, human; details: HAC-B 5 μM, NA-647 0.5 μM 1 h
Experimental: Colocalization between internalized NeutrAvidin™ and lysosome maker: 5×10^4 WT MDA-MB-231 cells were seeded in a confocal dish and cultured for 24 h at 37° C. Then, the cells were treated with free HAC-B at 5 μM for 2 h. Next, the drug-containing medium was removed, and PBS was used to wash the cells twice, followed by incubating the cells in the blank medium containing NA-647 at 0.5 μM for 1 h. Subsequently, the cells were washed with PBS twice and fixed with 4% PFA at room temperature for 20 min. Subsequently, the cell sample was treated with the permeabilization solution (0.5% Triton™ X-100 in PBS) at room temperature for another 20 min, followed by incubation with the blocking buffer (1% BSA in PBS) at room temperature for 1 h. The cell sample was incubated with the rabbit anti-LAMP1 antibody (Cell Signaling Technology/9091T) overnight at 4° C., followed by the incubation with the Alexa Fluor®488-conjugated anti-rabbit IgG H & L secondary antibodies at room temperature for 2 h. After staining with Hoechst 33342, the cells were subjected to Leica SP8 Confocal WLL STED microscopy for observation.

N#CCN(C(=O)CCCC[C@@H]1SC[C@@H]2NC(=O)N[C@@H]21)S(=O)(=O)c1ccc(C(=O)NCCCn2c(Sc3cc4c(cc3I)OCO4)nc3c(N)ncnc32)cc1 [HAC-B, N-(3-(6-amino-8-((6-iodobenzo[d][1,3]dioxol-5-yl)thio)-9H-purin-9-yl)propyl)-4-(N-(cyanomethyl)-N-(5-((3aS,4S,6aR)-2-oxohexahydro-1H-thieno[3,4-d]imidazol-4-yl)pentanoyl)sulfamoyl)benzamide]
biotin-labeled protein immunoprecipitated by streptavidin beads (gel, immunoblot) ([1]; 10 μM, 2 h, vs sample without treatment): an additional HSP90 band appeared in the gel
protein identification on IP samples through mass spectrum ([1]; streptavidin IP): could bind to both isoforms of HSP90, HSP90α (Hsp90aa1) and HSP90β (Hsp90ab1), with a favorable selectivity
distribution of internalized NA-647 relative to lysosome marker LAMP1 (WT MDA-MB-231 cells): mainly overlapped with the lysosome maker, LAMP1
